The assay has as its target Substance-P receptor (Homo sapiens, UniProt P25103). As to the kind of experiment: Inhibition of [125I]-Substance P binding to human NK1 receptors in CHO cells. Type of assay: cell-based.
Substance-P receptor, sequence (P25103 whole entry): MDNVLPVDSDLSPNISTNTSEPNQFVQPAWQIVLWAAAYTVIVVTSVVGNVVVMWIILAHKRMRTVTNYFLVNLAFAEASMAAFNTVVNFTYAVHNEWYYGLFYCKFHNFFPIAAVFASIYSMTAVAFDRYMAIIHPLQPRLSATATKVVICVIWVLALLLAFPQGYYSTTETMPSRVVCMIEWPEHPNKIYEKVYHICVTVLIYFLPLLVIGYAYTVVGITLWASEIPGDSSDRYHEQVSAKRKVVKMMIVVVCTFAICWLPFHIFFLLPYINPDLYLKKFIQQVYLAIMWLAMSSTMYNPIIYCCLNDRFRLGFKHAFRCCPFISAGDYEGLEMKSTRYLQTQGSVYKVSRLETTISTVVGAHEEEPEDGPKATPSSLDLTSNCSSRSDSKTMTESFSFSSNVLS
As to `CCCCCN(CCCCC)C(=O)N1CCN(C(=O)N(c2ccccc2)c2ccccc2)[C@H](C(=O)NCCCN(CC)CC)C1`, the IC50 (as a rule, the concentration that gives 50% inhibition) is 41 nM.

Turning to `CCCCCN(CCCCC)C(=O)N1CCN(C(=O)N(c2ccccc2)c2ccccc2)[C@H](C(=O)NCCN(C(C)C)C(C)C)C1`, the IC50 worked out at 217 nM.

In turn, `CCCCCN(CCCCC)C(=O)N1CCN(C(=O)N(c2ccccc2)c2ccccc2)[C@H](C(=O)NCCN(C)Cc2ccccc2OC)C1` came in with a concentration for half-maximal inhibition (IC50) of 9 nM.

The compound `CCCCCN(CCCCC)C(=O)N1CCN(C(=O)N(c2ccccc2)c2ccccc2)[C@H](C(=O)N(C)CCN(C)Cc2ccccc2)C1` showed an IC50 of 290 nM.

`CCCCCN(CCCCC)C(=O)N1CCN(C(=O)N(c2ccccc2)c2ccccc2)[C@H](C(=O)NCCNCc2ccccc2OC)C1`: the IC50 turned out to be 9 nM. Against the preceding compound, the IC50 is about 32-fold lower.

Regarding `CCCCCN(CCCCC)C(=O)N1CCN(C(=O)N(c2ccccc2)c2ccccc2)[C@H](C(=O)N(C)CCN(C)C)C1`, the IC50 amounted to 930 nM.

`CCCCCN(CCCCC)C(=O)N1CCN(C(=O)N(c2ccccc2)c2ccccc2)[C@H](C(=O)NCCN)C1` returned an IC50 of 57 nM.

As to `CCCCCN(CCCCC)C(=O)N1CCN(C(=O)N(c2ccccc2)c2ccccc2)[C@@H](C(=O)O)C1`, the 50% inhibitory concentration (IC50) was 3000 nM.

As to `CCCCCN(CCCCC)C(=O)N1CCN(C(=O)N(c2ccccc2)c2ccccc2)[C@H](C(=O)N(C)CCN(C)Cc2cc(C)cc(C)c2)C1`, the half-maximal inhibitory concentration (IC50) stood at 200 nM.

In the case of `CCCCCN(CCCCC)C(=O)N1CCN(C(=O)N(c2ccccc2)c2ccccc2)[C@H](C(=O)O)C1`, the IC50 was found to be 130 nM.

Regarding `CCCCCN(CCCCC)C(=O)N1CCN(C(=O)N(c2ccccc2)c2ccccc2)[C@H](C(=O)NCCNC(C)=O)C1`, the IC50 came out at 140 nM.

With `CCCCCN(CCCCC)C(=O)N1CCN(C(=O)N(c2ccccc2)c2ccccc2)[C@H](C(=O)N(C)CCN(C)Cc2ccccc2OC)C1`, the 50% inhibitory concentration (IC50) worked out at 17 nM. This IC50 lies about 8.2-fold lower than the previous one.

For the compound `CCCCCN(CCCCC)C(=O)N1CCN(C(=O)N(c2ccccc2)c2ccccc2)[C@H](C(=O)NCCN(C)C)C1`, the IC50 is 55 nM.

Compound `CCCCCN(CCCCC)C(=O)N1CCN(C(=O)N(c2ccccc2)c2ccccc2)[C@H](C(=O)NCCN(CC)CC)C1` displayed an IC50 of 11 nM. This IC50 is about 5-fold lower than that of the compound before.

On to `CCCCCN(CCCCC)C(=O)N1CCN(C(=O)N(c2ccccc2)c2ccccc2)[C@H](C(=O)N(C)CCN(C)Cc2cc(C(F)(F)F)cc(C(F)(F)F)c2)C1`, for which the IC50 came to 1080 nM.

As for `CCCCCN(CCCCC)C(=O)N1CCN(C(=O)N(c2ccccc2)c2ccccc2)[C@H](CO)C1`, the IC50 turned out to be 280 nM.

As to `CCCCCN(CCCCC)C(=O)N1CCN(C(=O)N(c2ccccc2)c2ccccc2)[C@H](C(=O)NCC(=O)O)C1`, the IC50 came out at 597 nM.

Compound `CCCCCN(CCCCC)C(=O)N1CCN(C(=O)N(c2ccccc2)c2ccccc2)[C@H](C(=O)NCCOC)C1` returned a concentration for half-maximal inhibition (IC50) of 267 nM.

For `CCCCCN(CCCCC)C(=O)N1CCN(C(=O)N(c2ccccc2)c2ccccc2)CC1`, the IC50 worked out at 500 nM. Compared with the last compound, the IC50 is about 1.9-fold higher.

Source of the values: ChEMBL document CHEMBL1127162, “1,4-Diacylpiperazine-2-(S)-[(N-aminoalkyl)carboxamides] as novel, potent substance P receptor antagonists” (Bioorg Med Chem Lett, 1993).
